This is an account of results in the OligoGym collection.

HELM strings list units from the 5' end as sugar, base in round brackets, then linkage (d deoxyribose, r ribose, m 2'-O-methyl, p phosphodiester). Strings are as the collection lists them; they lack the last nucleoside at the 3' end of the tested compound. [moe] = 2'-O-(2-methoxyethyl) (MOE); [sp] = phosphorothioate linkage; [m5C] = 5-methylcytosine

This data set concerns the target ATXN3. The data set can be described thus: mouse, dose not given. Conditions: ASO.
Substance “RNA1{[moe](A)[sp].[moe](A)p.[moe](T)p.[moe](G)p.[moe]([m5C])[sp].d(T)[sp].d([m5C])[sp].d(A)[sp].d(T)[sp].d(T)[sp].d(T)[sp].d(A)[sp].d(T)[sp].d(T)[sp].d([m5C])[sp].[moe](T)p.[moe]([m5C])p.[moe](A)[sp].[moe](A)}$$$$ (last 3' nucleoside missing)” returned a 3 h FOB score of 2 score 0-7.
For “RNA1{[moe](A)[sp].[moe](A)p.[moe](T)p.[moe](G)p.[moe]([m5C])p.d(A)[sp].d(T)[sp].d(A)[sp].d(T)[sp].d(T)[sp].d(G)[sp].d(G)[sp].d(T)[sp].d(T)[sp].d(T)[sp].[moe](T)p.[moe]([m5C])p.[moe](T)[sp].[moe]([m5C])}$$$$ (last 3' nucleoside missing)” the value was 4 score 0-7; for “RNA1{[moe](A)[sp].[moe](A)p.[moe](T)p.[moe](T)p.[moe]([m5C])[sp].d(T)[sp].d(T)[sp].d(G)[sp].d([m5C])[sp].d(T)[sp].d(T)[sp].d([m5C])[sp].d(A)[sp].d(A)[sp].d([m5C])[sp].[moe]([m5C])p.[moe](A)p.[moe](T)[sp].[moe]([m5C])}$$$$ (last 3' nucleoside missing)”, 1.25 score 0-7; for “RNA1{[moe](A)[sp].[moe](G)[sp].[moe]([m5C])p.[moe]([m5C])p.[moe](A)[sp].d(A)[sp].d(T)[sp].d(A)[sp].d(T)[sp].d(T)[sp].d(T)[sp].d(A)[sp].d(T)[sp].d(A)[sp].d(G)[sp].[moe](G)p.[moe](T)p.[moe](G)[sp].[moe]([m5C])}$$$$ (last 3' nucleoside missing)”, 1 score 0-7.
Turning to “RNA1{[moe](A)[sp].[moe](G)p.[moe](T)p.[moe](G)p.[moe]([m5C])[sp].d(T)[sp].d(A)[sp].d(T)[sp].d(A)[sp].d(A)[sp].d(T)[sp].d(T)[sp].d([m5C])[sp].d(T)[sp].d(T)[sp].[moe](G)p.[moe]([m5C])p.[moe](T)[sp].[moe](T)}$$$$ (last 3' nucleoside missing)”, the 3 h FOB score was 0.25 score 0-7.
For “RNA1{[moe](A)[sp].[moe](G)p.[moe](T)p.[moe](G)p.[moe]([m5C])[sp].d(T)[sp].d(U)[sp].d(T)[sp].d(T)[sp].d([m5C])[sp].d(A)[sp].d(T)[sp].d(A)[sp].d([m5C])[sp].d([m5C])[sp].[moe](A)p.[moe](G)p.[moe](G)[sp].[moe](T)}$$$$ (last 3' nucleoside missing)” the value was 0.75 score 0-7; for “RNA1{[moe](A)[sp].[moe](G)p.[moe](T)p.[moe](G)p.[moe]([m5C])p.[moe](T)p.d(T)[sp].d(T)[sp].d(T)[sp].d([m5C])[sp].d(A)[sp].d(T)[sp].d(A)[sp].d([m5C])[sp].d([m5C])[sp].d(A)[sp].[moe](G)p.[moe](G)[sp].[moe](T)}$$$$ (last 3' nucleoside missing)”, 1 score 0-7.
On to “RNA1{[moe](A)[sp].[moe](G)p.[moe]([m5C])p.[moe]([m5C])p.[moe](A)[sp].d(A)[sp].d(T)[sp].d(A)[sp].d(T)[sp].d(T)[sp].d(T)[sp].d(A)[sp].d(T)[sp].d(A)[sp].d(G)[sp].[moe](G)p.[moe](T)p.[moe](G)[sp].[moe]([m5C])}$$$$ (last 3' nucleoside missing)”, for which the 3 h FOB score stood at 1 score 0-7.
The figure for “RNA1{[moe](A)[sp].[moe](G)p.[moe]([m5C])p.[moe]([m5C])p.[moe](A)p.d(A)[sp].d(T)[sp].d(A)[sp].d(T)[sp].d(T)[sp].d(T)[sp].d(A)[sp].d(T)[sp].d(A)[sp].d(G)[sp].[moe](G)p.[moe](T)p.[moe](G)[sp].[moe]([m5C])}$$$$ (last 3' nucleoside missing)” is 1 score 0-7.
Substance “RNA1{[moe](A)[sp].[moe](T)p.[moe](G)[sp].[moe](T)[sp].[moe](T)[sp].d(A)[sp].d(A)[sp].d(T)[sp].d(A)[sp].d([m5C])[sp].d(T)[sp].d(T)[sp].d(T)[sp].d(T)[sp].d(T)[sp].[moe]([m5C])[sp].[moe]([m5C])p.[moe](A)[sp].[moe](G)}$$$$ (last 3' nucleoside missing)” yielded a 3 h FOB score of 0.25 score 0-7.
As to “RNA1{[moe](A)[sp].[moe](T)p.[moe](G)p.[moe](A)p.[moe](G)[sp].d([m5C])[sp].d([m5C])[sp].d(A)[sp].d(A)[sp].d(T)[sp].d(A)[sp].d(T)[sp].d(T)[sp].d(T)[sp].d(A)[sp].[moe](T)p.[moe](A)p.[moe](G)[sp].[moe](G)}$$$$ (last 3' nucleoside missing)”, the 3 h FOB score was found to be 1 score 0-7.
For “RNA1{[moe](A)[sp].[moe](T)p.[moe](G)p.[moe](T)p.[moe](T)[sp].d([m5C])[sp].d(A)[sp].d(T)[sp].d(A)[sp].d(T)[sp].d([m5C])[sp].d([m5C])[sp].d(T)[sp].d(T)[sp].d(T)[sp].[moe](A)p.[moe](A)p.[moe]([m5C])[sp].[moe]([m5C])}$$$$ (last 3' nucleoside missing)”, the 3 h FOB score amounted to 0 score 0-7.
The figure for “RNA1{[moe](A)[sp].[moe](T)p.[moe](G)p.[moe](T)p.[moe](T)p.[moe]([m5C])p.d(A)[sp].d(T)[sp].d(A)[sp].d(T)[sp].d([m5C])[sp].d([m5C])[sp].d(T)[sp].d(T)[sp].d(T)[sp].d(A)[sp].[moe](A)p.[moe]([m5C])[sp].[moe]([m5C])}$$$$ (last 3' nucleoside missing)” is 0 score 0-7; for “RNA1{[moe](A)[sp].[moe](T)p.[moe](G)p.[moe]([m5C])p.[moe](T)[sp].d([m5C])[sp].d(A)[sp].d(T)[sp].d(T)[sp].d(T)[sp].d(A)[sp].d(T)[sp].d(T)[sp].d([m5C])[sp].d(T)[sp].[moe]([m5C])p.[moe](A)p.[moe](A)[sp].[moe](G)}$$$$ (last 3' nucleoside missing)” it is 0 score 0-7.
For “RNA1{[moe](A)[sp].[moe](T)p.[moe](T)p.[moe](T)p.[moe](T)[sp].d([m5C])[sp].d(A)[sp].d(T)[sp].d(G)[sp].d(T)[sp].d(T)[sp].d([m5C])[sp].d([m5C])[sp].d(A)[sp].d(G)[sp].[moe](A)p.[moe](T)p.[moe]([m5C])[sp].[moe](A)}$$$$ (last 3' nucleoside missing)” the value was 1 score 0-7.
Regarding “RNA1{[moe](A)[sp].[moe](T)p.[moe](T)p.[moe]([m5C])p.[moe](T)[sp].d(T)[sp].d(G)[sp].d([m5C])[sp].d(T)[sp].d(T)[sp].d([m5C])[sp].d(A)[sp].d(A)[sp].d([m5C])[sp].d([m5C])[sp].[moe](A)p.[moe](T)p.[moe]([m5C])[sp].[moe](A)}$$$$ (last 3' nucleoside missing)”, the 3 h FOB score stood at 0.375 score 0-7.
On to “RNA1{[moe](A)[sp].[moe](T)p.[moe]([m5C])p.[moe](A)p.[moe]([m5C])[sp].d(T)[sp].d(G)[sp].d([m5C])[sp].d(A)[sp].d([m5C])[sp].d(A)[sp].d([m5C])[sp].d(T)[sp].d(T)[sp].d(T)[sp].[moe]([m5C])p.[moe]([m5C])p.[moe](T)[sp].[moe]([m5C])}$$$$ (last 3' nucleoside missing)”, for which the 3 h FOB score was 0 score 0-7.
Turning to “RNA1{[moe](A)[sp].[moe]([m5C])p.[moe](T)p.[moe](A)p.[moe]([m5C])[sp].d([m5C])[sp].d(T)[sp].d(T)[sp].d(G)[sp].d([m5C])[sp].d(A)[sp].d(T)[sp].d(A)[sp].d([m5C])[sp].d(T)[sp].[moe](T)p.[moe](A)p.[moe](G)[sp].[moe]([m5C])}$$$$ (last 3' nucleoside missing)”, the 3 h FOB score is 1.12 score 0-7.
For “RNA1{[moe](A)[sp].[moe]([m5C])p.[moe](T)p.[moe](G)p.[moe](G)[sp].d(T)[sp].d([m5C])[sp].d(A)[sp].d(G)[sp].d(T)[sp].d(T)[sp].d(T)[sp].d([m5C])[sp].d([m5C])[sp].d(T)[sp].[moe](A)p.[moe](A)p.[moe](T)[sp].[moe](T)}$$$$ (last 3' nucleoside missing)” the value was 0 score 0-7.
Consider “RNA1{[moe](A)[sp].[moe]([m5C])p.[moe](T)p.[moe](G)p.[moe]([m5C])[sp].d(A)[sp].d([m5C])[sp].d(A)[sp].d([m5C])[sp].d(T)[sp].d(T)[sp].d(T)[sp].d([m5C])[sp].d([m5C])[sp].d(T)[sp].[moe]([m5C])p.[moe]([m5C])p.[moe](T)[sp].[moe]([m5C])}$$$$ (last 3' nucleoside missing)”, for which the 3 h FOB score was found to be 0 score 0-7.
For “RNA1{[moe](A)[sp].[moe]([m5C])p.[moe]([m5C])p.[moe](A)p.[moe](T)[sp].d([m5C])[sp].d(T)[sp].d(T)[sp].d(T)[sp].d(G)[sp].d(A)[sp].d([m5C])[sp].d(A)[sp].d(A)[sp].d(G)[sp].[moe]([m5C])p.[moe](T)p.[moe](A)[sp].[moe](T)}$$$$ (last 3' nucleoside missing)” the value was 2.75 score 0-7; for “RNA1{[moe](A)[sp].[moe]([m5C])p.[moe]([m5C])p.[moe]([m5C])p.[moe](A)[sp].d(A)[sp].d(T)[sp].d(A)[sp].d(A)[sp].d(T)[sp].d([m5C])[sp].d(T)[sp].d(G)[sp].d(A)[sp].d([m5C])[sp].[moe](A)p.[moe](T)p.[moe]([m5C])[sp].[moe]([m5C])}$$$$ (last 3' nucleoside missing)”, 0 score 0-7.
Regarding “RNA1{[moe](G)[sp].[moe](G)p.[moe](T)p.[moe](T)p.[moe](T)[sp].d(T)[sp].d([m5C])[sp].d(T)[sp].d([m5C])[sp].d(A)[sp].d(T)[sp].d(T)[sp].d(T)[sp].d(T)[sp].d(T)[sp].[moe](A)p.[moe](T)p.[moe](A)[sp].[moe](T)}$$$$ (last 3' nucleoside missing)”, the 3 h FOB score was 2.25 score 0-7.
On to “RNA1{[moe](G)[sp].[moe](G)p.[moe](T)p.[moe]([m5C])p.[moe](A)p.[moe](G)p.d(T)[sp].d(T)[sp].d(T)[sp].d([m5C])[sp].d([m5C])[sp].d(T)[sp].d(A)[sp].d(A)[sp].d(T)[sp].d(T)[sp].[moe](T)p.[moe](T)[sp].[moe](A)}$$$$ (last 3' nucleoside missing)”, for which the 3 h FOB score was determined as 1 score 0-7.
Turning to “RNA1{[moe](G)[sp].[moe](G)p.[moe]([m5C])p.[moe](A)p.[moe]([m5C])p.[moe](A)p.d(T)[sp].d(T)[sp].d(T)[sp].d(T)[sp].d(T)[sp].d(T)[sp].d(A)[sp].d(T)[sp].d(A)[sp].d(G)[sp].[moe](A)p.[moe](G)[sp].[moe](T)}$$$$ (last 3' nucleoside missing)”, the 3 h FOB score was determined as 1 score 0-7.
